The source of these data is ChEMBL document CHEMBL4627299, “Computational discovery and biological evaluation of novel inhibitors targeting histone-lysine N-methyltransferase SET7” (Bioorg Med Chem, 2020).

The test system of one experiment is MDA-MB-231. The experiment can be described thus: Antiproliferation activity against human MDA-MB-231 cells assessed as reduction in cell viability measured by Cell-titer-Glo assay. Type of experiment: functional, cell-based.
A further experiment deals with HeLa. Put plainly: Antiproliferation activity against human HeLa cells assessed as reduction in cell viability measured by Cell-titer-Glo assay. It is filed as functional, cell-based.
In a further experiment the test system is MV4-11. The experiment can be described thus: Antiproliferation activity against human MV4-11 cells assessed as reduction in cell viability measured by Cell-titer-Glo assay. It is filed as functional, cell-based.
In another experiment the test system is MCF7. Put plainly: Antiproliferation activity against human MCF7 cells assessed as reduction in cell viability measured by Cell-titer-Glo assay. It is filed as functional, cell-based.
Experiment [1] concerns the target T1, Histone-lysine N-methyltransferase SMYD3 (Homo sapiens, UniProt Q9H7B4).
T1 sequence (Q9H7B4 whole entry): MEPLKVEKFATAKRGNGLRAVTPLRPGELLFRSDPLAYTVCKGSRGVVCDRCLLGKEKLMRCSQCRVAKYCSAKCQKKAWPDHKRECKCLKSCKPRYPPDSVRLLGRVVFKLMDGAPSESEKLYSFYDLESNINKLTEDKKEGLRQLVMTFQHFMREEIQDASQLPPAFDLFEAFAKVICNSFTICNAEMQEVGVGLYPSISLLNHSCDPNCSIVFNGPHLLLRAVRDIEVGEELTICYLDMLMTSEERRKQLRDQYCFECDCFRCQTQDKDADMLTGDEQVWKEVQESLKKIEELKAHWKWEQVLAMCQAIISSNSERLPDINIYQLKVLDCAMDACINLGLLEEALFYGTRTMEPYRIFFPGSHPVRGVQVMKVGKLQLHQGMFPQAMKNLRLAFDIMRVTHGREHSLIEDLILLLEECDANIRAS
The experiment can be described thus: Inhibition of SMYD3 (unknown origin) preincubated for 15 mins followed by addition of [3H]-SAM as substrate and peptide solution after 240 mins cold SAM was added measured after 1 hr by radioisotope assay.

The species named for a further experiment is Homo sapiens. Put plainly: Antiproliferation activity against human UMCHOR1 cells assessed as reduction in cell viability measured by Cell-titer-Glo assay. Type of experiment: functional, cell-based.
The target in experiment [2] is T2, Histone-lysine N-methyltransferase EZH1 (Homo sapiens, UniProt Q92800).
T2 sequence (Q92800 whole entry): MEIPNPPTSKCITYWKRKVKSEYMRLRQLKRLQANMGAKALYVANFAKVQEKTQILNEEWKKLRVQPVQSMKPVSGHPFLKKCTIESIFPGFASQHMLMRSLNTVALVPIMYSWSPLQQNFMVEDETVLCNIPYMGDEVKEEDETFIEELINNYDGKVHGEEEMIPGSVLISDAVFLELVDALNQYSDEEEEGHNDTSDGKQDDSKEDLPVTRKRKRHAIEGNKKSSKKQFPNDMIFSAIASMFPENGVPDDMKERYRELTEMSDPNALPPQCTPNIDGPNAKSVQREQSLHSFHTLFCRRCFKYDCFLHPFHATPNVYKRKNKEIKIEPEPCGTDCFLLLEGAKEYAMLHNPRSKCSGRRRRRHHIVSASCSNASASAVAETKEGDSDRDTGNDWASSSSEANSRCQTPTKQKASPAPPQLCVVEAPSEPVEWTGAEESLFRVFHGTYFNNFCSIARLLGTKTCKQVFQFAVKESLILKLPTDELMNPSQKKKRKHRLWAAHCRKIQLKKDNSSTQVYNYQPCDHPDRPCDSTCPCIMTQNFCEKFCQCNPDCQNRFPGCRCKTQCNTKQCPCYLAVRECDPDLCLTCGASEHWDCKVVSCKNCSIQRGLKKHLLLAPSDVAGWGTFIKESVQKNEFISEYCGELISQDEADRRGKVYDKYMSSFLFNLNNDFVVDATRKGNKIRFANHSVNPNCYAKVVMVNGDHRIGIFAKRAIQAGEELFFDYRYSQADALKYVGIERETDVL
The experiment can be described thus: Inhibition of Ezh1 (unknown origin) preincubated for 15 mins followed by addition of substrate measured after 1 hr by AlphaLISA assay.

Another experiment concerns A549. The experiment can be described thus: Antiproliferation activity against human A549 cells assessed as reduction in cell viability measured by Cell-titer-Glo assay. Type of experiment: functional, cell-based.
The target in experiment [3] is Histone-lysine N-methyltransferase 2A (Homo sapiens, UniProt Q03164). The experiment can be described thus: Inhibition of MLL1 (unknown origin) preincubated for 15 mins followed by addition of substrate measured after 1 hr by AlphaLISA assay. On the technique in general: In Alpha technology, singlet oxygen from a donor bead excites a nearby acceptor bead.
For experiment [4], the target named is T3, Histone-lysine N-methyltransferase NSD2 (Homo sapiens, UniProt O96028).
T3 sequence (O96028 whole entry): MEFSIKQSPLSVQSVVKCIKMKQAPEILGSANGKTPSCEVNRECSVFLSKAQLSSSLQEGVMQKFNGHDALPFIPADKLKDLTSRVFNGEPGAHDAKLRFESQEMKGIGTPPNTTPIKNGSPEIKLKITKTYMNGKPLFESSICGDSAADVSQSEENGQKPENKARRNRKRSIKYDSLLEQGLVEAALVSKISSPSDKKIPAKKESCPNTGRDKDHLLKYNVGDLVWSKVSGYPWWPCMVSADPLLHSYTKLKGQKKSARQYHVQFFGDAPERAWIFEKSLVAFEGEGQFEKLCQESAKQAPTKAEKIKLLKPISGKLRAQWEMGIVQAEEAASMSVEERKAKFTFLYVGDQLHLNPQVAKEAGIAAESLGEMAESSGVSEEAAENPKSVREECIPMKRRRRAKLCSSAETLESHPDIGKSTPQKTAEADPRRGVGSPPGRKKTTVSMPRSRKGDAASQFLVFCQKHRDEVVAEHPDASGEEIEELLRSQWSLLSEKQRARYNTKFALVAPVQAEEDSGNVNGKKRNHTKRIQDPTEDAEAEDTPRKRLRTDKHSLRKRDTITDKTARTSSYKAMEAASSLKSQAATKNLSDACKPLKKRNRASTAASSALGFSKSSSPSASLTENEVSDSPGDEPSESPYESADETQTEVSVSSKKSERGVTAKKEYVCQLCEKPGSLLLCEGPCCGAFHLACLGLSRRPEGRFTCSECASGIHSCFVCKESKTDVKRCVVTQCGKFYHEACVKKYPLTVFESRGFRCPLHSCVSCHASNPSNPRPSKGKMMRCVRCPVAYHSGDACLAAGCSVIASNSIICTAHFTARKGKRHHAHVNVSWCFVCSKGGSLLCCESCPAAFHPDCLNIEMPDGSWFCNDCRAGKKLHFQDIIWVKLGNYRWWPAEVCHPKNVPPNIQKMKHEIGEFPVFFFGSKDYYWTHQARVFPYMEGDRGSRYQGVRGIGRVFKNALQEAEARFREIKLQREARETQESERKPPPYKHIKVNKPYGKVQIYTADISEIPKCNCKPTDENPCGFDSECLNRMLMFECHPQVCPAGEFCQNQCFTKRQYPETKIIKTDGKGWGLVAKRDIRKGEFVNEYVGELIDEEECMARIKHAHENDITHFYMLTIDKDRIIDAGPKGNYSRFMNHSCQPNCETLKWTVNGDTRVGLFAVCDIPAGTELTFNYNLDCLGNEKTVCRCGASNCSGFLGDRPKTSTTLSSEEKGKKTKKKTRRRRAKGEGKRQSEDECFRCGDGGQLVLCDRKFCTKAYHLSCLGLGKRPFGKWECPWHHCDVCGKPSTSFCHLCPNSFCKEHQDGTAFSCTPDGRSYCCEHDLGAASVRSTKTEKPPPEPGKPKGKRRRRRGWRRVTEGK
Put plainly: Inhibition of NSD2 (unknown origin) preincubated for 15 mins followed by addition of [3H]-SAM as substrate and peptide solution after 240 mins cold SAM was added measured by radioisotope assay.

Experiment [5] deals with T4, Histone-lysine N-methyltransferase SETD7 (Homo sapiens, UniProt Q8WTS6).
T4 sequence (Q8WTS6 whole entry): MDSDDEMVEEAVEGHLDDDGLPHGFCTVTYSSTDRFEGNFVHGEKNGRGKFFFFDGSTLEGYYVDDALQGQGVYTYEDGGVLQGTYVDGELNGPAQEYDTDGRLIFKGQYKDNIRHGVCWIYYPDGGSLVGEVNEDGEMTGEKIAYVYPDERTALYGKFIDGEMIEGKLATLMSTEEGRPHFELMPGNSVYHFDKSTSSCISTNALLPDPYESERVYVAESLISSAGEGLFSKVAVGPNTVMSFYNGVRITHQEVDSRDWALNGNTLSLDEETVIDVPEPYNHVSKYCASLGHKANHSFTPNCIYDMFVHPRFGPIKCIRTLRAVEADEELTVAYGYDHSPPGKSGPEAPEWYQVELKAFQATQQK
Put plainly: Inhibition of human SET7 overexpressed in Escherichia coli BL21 (DE3) cells preincubated for 15 mins followed by addition of SAM as substrate and biotinylated Histone H3 (1-50) peptide measured after 30 mins by AlphaLISA assay relative to control.

pIC50: −log10 of the molar value. Activity calls are given as the source filed them. The rule behind the calls is not given here.

For orientation: pIC50 means −log10 of the IC50, conventionally taken in molar units.

Sequence of Histone-lysine N-methyltransferase 2A (Q03164 1-2718 limits assumed): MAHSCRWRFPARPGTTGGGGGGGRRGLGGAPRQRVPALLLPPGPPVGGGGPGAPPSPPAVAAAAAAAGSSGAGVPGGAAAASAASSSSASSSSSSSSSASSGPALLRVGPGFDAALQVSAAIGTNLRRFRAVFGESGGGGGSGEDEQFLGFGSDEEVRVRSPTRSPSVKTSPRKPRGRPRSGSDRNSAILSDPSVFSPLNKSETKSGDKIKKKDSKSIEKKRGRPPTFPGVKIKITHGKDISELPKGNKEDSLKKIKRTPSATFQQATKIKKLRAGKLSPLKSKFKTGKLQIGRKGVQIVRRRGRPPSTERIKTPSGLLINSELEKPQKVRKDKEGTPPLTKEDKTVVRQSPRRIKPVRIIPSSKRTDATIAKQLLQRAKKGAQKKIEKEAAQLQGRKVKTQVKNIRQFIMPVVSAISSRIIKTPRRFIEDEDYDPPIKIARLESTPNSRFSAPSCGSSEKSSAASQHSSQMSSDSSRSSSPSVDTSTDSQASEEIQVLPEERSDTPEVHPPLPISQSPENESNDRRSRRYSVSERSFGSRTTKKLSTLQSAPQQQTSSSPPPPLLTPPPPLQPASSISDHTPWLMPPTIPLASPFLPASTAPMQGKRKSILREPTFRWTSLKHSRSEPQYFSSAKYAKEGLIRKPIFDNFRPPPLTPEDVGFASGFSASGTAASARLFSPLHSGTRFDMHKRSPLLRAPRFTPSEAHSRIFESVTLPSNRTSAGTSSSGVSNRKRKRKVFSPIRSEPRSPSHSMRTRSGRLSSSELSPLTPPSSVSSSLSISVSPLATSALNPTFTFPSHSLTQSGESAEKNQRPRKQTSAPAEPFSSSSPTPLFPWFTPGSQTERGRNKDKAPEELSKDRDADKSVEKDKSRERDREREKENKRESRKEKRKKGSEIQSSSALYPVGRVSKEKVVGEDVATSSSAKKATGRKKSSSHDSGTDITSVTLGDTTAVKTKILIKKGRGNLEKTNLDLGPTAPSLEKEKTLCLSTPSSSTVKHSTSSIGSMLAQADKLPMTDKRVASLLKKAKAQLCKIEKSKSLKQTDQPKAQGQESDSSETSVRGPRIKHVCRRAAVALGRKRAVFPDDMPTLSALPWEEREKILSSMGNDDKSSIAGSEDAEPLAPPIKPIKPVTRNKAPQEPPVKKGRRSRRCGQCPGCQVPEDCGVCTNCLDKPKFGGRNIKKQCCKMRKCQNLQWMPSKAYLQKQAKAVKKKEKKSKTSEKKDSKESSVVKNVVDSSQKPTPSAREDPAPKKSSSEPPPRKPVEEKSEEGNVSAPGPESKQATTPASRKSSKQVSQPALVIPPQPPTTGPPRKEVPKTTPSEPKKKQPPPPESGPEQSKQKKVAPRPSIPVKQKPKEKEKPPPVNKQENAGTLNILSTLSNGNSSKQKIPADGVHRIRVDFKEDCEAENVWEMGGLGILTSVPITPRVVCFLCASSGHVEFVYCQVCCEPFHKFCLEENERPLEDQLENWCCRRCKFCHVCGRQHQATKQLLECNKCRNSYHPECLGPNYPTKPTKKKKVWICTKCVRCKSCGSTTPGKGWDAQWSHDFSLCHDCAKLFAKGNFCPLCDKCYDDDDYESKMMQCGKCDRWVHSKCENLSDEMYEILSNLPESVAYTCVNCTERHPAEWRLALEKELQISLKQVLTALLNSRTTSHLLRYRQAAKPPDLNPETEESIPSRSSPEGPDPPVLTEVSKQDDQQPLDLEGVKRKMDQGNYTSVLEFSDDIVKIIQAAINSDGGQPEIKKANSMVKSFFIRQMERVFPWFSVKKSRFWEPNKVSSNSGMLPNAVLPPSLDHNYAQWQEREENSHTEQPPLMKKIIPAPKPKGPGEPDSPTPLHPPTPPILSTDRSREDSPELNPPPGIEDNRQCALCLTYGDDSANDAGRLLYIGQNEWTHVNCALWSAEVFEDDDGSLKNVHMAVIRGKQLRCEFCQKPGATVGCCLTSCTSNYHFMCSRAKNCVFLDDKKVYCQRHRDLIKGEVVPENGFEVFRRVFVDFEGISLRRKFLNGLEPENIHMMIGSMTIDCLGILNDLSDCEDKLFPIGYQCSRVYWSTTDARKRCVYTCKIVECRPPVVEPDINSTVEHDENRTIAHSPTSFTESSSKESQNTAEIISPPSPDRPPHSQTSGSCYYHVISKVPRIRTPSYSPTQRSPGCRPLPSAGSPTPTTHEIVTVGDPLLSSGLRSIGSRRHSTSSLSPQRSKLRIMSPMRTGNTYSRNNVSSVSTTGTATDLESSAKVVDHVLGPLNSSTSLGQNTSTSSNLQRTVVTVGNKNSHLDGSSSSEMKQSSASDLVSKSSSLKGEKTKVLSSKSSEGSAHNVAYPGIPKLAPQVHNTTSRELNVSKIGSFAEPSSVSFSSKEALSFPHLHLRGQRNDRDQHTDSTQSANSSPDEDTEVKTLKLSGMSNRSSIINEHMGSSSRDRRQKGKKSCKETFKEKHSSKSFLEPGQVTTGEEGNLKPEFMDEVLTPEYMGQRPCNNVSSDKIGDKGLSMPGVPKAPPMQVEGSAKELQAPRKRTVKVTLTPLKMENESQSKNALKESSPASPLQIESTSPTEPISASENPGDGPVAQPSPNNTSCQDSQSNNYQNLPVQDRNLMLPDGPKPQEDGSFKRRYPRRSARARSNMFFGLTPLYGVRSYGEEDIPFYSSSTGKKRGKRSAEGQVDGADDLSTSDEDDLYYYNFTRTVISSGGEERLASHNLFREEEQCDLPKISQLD
Sequence of Histone-lysine N-methyltransferase 2A (Q03164 2719-3969 limits assumed): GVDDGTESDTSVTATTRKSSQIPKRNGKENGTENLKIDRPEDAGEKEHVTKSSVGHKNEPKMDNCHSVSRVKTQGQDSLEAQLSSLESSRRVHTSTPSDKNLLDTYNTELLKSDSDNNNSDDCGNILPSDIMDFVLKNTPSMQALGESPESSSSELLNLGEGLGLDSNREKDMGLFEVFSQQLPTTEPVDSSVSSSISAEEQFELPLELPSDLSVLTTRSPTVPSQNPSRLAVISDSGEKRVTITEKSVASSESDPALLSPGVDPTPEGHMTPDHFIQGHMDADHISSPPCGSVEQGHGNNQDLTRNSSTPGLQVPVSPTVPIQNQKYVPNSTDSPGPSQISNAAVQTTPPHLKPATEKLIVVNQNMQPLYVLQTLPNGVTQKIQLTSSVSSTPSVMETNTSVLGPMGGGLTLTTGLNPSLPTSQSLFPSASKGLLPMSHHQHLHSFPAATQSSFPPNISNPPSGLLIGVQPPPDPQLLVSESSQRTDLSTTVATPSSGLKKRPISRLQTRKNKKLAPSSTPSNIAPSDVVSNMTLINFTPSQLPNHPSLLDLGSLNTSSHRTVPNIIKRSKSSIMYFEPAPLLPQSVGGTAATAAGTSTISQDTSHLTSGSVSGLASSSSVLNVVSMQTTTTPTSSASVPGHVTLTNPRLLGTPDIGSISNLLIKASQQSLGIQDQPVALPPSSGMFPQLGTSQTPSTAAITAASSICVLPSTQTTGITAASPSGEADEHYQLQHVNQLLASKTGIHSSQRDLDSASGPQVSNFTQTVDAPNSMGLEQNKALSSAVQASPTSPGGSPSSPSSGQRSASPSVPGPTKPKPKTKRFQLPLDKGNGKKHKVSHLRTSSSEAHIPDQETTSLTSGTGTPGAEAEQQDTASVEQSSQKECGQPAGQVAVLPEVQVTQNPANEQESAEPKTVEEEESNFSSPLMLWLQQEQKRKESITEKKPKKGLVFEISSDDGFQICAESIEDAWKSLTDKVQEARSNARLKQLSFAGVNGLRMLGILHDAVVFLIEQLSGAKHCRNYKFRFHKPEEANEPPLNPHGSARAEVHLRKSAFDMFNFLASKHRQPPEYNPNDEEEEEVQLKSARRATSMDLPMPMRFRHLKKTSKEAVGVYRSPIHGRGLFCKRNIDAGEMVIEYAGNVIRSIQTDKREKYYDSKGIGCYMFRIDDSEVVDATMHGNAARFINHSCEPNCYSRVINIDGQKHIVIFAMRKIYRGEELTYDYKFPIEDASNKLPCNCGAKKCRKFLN

For the molecule `O=c1cc(-c2ccc(O)cc2)oc2cc(O)c(O)c(O)c12` [SCUTELLAREIN], the result in the experiment on MDA-MB-231, with HeLa, in the experiment on MCF7, in the experiment listed under Homo sapiens and in the experiment on A549 was inactive. The pIC50 is 4.57 with MV4-11; 4.74 in experiment [1]; 5.06 in experiment [2]; 5.53 in experiment [3]; 5.58 in experiment [4]; 5.71 in [5].
